Columns and labels:
Assay type in all cases: functional
OVCAR-8 = assay: Growth inhibition of human OVCAR8 cells at 10^-5 M incubated for 48 hrs by sulforhodamine B assay; conditions: OVCAR-8, 48 h, read-out: GI
NCI/ADR-RES = assay: Growth inhibition of human NCI/ADR-RES cells at 10^-5 M incubated for 48 hrs by sulforhodamine B assay; conditions: read-out: GI
SF-268 = assay: Growth inhibition of human SF268 cells at 10^-5 M incubated for 48 hrs by sulforhodamine B assay; conditions: SF-268, 48 h, read-out: GI
TK-10 = assay: Growth inhibition of human TK10 cells at 10^-5 M incubated for 48 hrs by sulforhodamine B assay; conditions: TK-10, 48 h, read-out: GI
M14 = assay: Growth inhibition of human M14 cells at 10^-5 M incubated for 48 hrs by sulforhodamine B assay; conditions: M14, 48 h, read-out: GI
DU-145 = assay: Growth inhibition of human DU145 cells at 10^-5 M incubated for 48 hrs by sulforhodamine B assay; conditions: DU-145, 48 h, read-out: GI
CAKI-1 = assay: Growth inhibition of human Caki1 cells at 10^-5 M incubated for 48 hrs by sulforhodamine B assay; conditions: CAKI-1, 48 h, read-out: GI
A498 = assay: Growth inhibition of human A498 cells at 10^-5 M incubated for 48 hrs by sulforhodamine B assay; conditions: A498, 48 h, read-out: GI
Malme-3M = assay: Growth inhibition of human MALME-3M cells at 10^-5 M incubated for 48 hrs by sulforhodamine B assay; conditions: read-out: GI
PC-3 = assay: Growth inhibition of human PC3 cells at 10^-5 M incubated for 48 hrs by sulforhodamine B assay; conditions: PC-3, 48 h, read-out: GI
NCI-H23 = assay: Growth inhibition of human NCI-H23 cells at 10^-5 M incubated for 48 hrs by sulforhodamine B assay; conditions: NCI-H23, 48 h, read-out: GI
NCI-H322M = assay: Growth inhibition of human NCI-H322M cells at 10^-5 M incubated for 48 hrs by sulforhodamine B assay; conditions: read-out: GI
K562 = assay: Growth inhibition of human K562 cells at 10^-5 M incubated for 48 hrs by sulforhodamine B assay; conditions: K562, 48 h, read-out: GI
MDA-MB-231 = assay: Growth inhibition of human MDA-MB-231 cells at 10^-5 M incubated for 48 hrs by sulforhodamine B assay; conditions: MDA-MB-231, 48 h, read-out: GI
SW-620 = assay: Growth inhibition of human SW620 cells at 10^-5 M incubated for 48 hrs by sulforhodamine B assay; conditions: SW-620, 48 h, read-out: GI
UACC-62 = assay: Growth inhibition of human UACC62 cells at 10^-5 M incubated for 48 hrs by sulforhodamine B assay; conditions: UACC-62, 48 h, read-out: GI
HCC 2998 = assay: Growth inhibition of human HCC2998 cells at 10^-5 M incubated for 48 hrs by sulforhodamine B assay; conditions: HCC 2998, 48 h, read-out: GI
COLO 205 = assay: Growth inhibition of human COLO205 cells at 10^-5 M incubated for 48 hrs by sulforhodamine B assay; conditions: COLO 205, 48 h, read-out: GI
Hs-578T = assay: Growth inhibition of human Hs 578T cells at 10^-5 M incubated for 48 hrs by sulforhodamine B assay; conditions: read-out: GI
SK-MEL-5 = assay: Growth inhibition of human SK-MEL-5 cells at 10^-5 M incubated for 48 hrs by sulforhodamine B assay; conditions: SK-MEL-5, 48 h, read-out: GI
HOP-92 = assay: Growth inhibition of human HOP92 cells at 10^-5 M incubated for 48 hrs by sulforhodamine B assay; conditions: HOP-92, 48 h, read-out: GI
HT-29 = assay: Growth inhibition of human HT-29 cells at 10^-5 M incubated for 48 hrs by sulforhodamine B assay; conditions: HT-29, 48 h, read-out: GI
MCF7 = assay: Growth inhibition of human MCF7 cells at 10^-5 M incubated for 48 hrs by sulforhodamine B assay; conditions: MCF7, 48 h, read-out: GI
OVCAR-5 = assay: Growth inhibition of human OVCAR5 cells at 10^-5 M incubated for 48 hrs by sulforhodamine B assay; conditions: OVCAR-5, 48 h, read-out: GI
MDA-MB-468 = assay: Growth inhibition of human MDA-MB-468 cells at 10^-5 M incubated for 48 hrs by sulforhodamine B assay; conditions: MDA-MB-468, 48 h, read-out: GI
U-251 = assay: Growth inhibition of human U251 cells at 10^-5 M incubated for 48 hrs by sulforhodamine B assay; conditions: U-251, 48 h, read-out: GI
SK-OV-3 = assay: Growth inhibition of human SKOV3 cells at 10^-5 M incubated for 48 hrs by sulforhodamine B assay; conditions: SK-OV-3, 48 h, read-out: GI
OVCAR-3 = assay: Growth inhibition of human OVCAR3 cells at 10^-5 M incubated for 48 hrs by sulforhodamine B assay; conditions: OVCAR-3, 48 h, read-out: GI
A549 = assay: Growth inhibition of human A549/ATCC cells at 10^-5 M incubated for 48 hrs by sulforhodamine B assay; conditions: A549, 48 h, read-out: GI
UACC-257 = assay: Growth inhibition of human UACC257 cells at 10^-5 M incubated for 48 hrs by sulforhodamine B assay; conditions: UACC-257, 48 h, read-out: GI
BT-549 = assay: Growth inhibition of human BT549 cells at 10^-5 M incubated for 48 hrs by sulforhodamine B assay; conditions: BT-549, 48 h, read-out: GI
NCI-H226 = assay: Growth inhibition of human NCI-H226 cells at 10^-5 M incubated for 48 hrs by sulforhodamine B assay; conditions: NCI-H226, 48 h, read-out: GI
SN12C = assay: Growth inhibition of human SN12C cells at 10^-5 M incubated for 48 hrs by sulforhodamine B assay; conditions: read-out: GI
SNB-75 = assay: Growth inhibition of human SNB75 cells at 10^-5 M incubated for 48 hrs by sulforhodamine B assay; conditions: SNB-75, 48 h, read-out: GI
RXF 393 = assay: Growth inhibition of human RXF393 cells at 10^-5 M incubated for 48 hrs by sulforhodamine B assay; conditions: RXF 393, 48 h, read-out: GI
SR = assay: Growth inhibition of human SR cells at 10^-5 M incubated for 48 hrs by sulforhodamine B assay; conditions: read-out: GI
ACHN = assay: Growth inhibition of human ACHN cells at 10^-5 M incubated for 48 hrs by sulforhodamine B assay; conditions: read-out: GI
EKVX = assay: Growth inhibition of human EKVX cells at 10^-5 M incubated for 48 hrs by sulforhodamine B assay; conditions: read-out: GI
IGROV-1 = assay: Growth inhibition of human IGROV1 cells at 10^-5 M incubated for 48 hrs by sulforhodamine B assay; conditions: IGROV-1, 48 h, read-out: GI

Structure (SMILES) | inhibition of growth at 10 µM (OVCAR-8) [%] | inhibition of growth at 10 µM (NCI/ADR-RES) [%] | inhibition of growth at 10 µM (SF-268) [%] | inhibition of growth at 10 µM (TK-10) [%] | inhibition of growth at 10 µM (M14) [%] | inhibition of growth at 10 µM (DU-145) [%] | inhibition of growth at 10 µM (CAKI-1) [%] | inhibition of growth at 10 µM (A498) [%] | inhibition of growth at 10 µM (Malme-3M) [%] | inhibition of growth at 10 µM (PC-3) [%] | inhibition of growth at 10 µM (NCI-H23) [%] | inhibition of growth at 10 µM (NCI-H322M) [%] | inhibition of growth at 10 µM (K562) [%] | inhibition of growth at 10 µM (MDA-MB-231) [%] | inhibition of growth at 10 µM (SW-620) [%] | inhibition of growth at 10 µM (UACC-62) [%] | inhibition of growth at 10 µM (HCC 2998) [%] | inhibition of growth at 10 µM (COLO 205) [%] | inhibition of growth at 10 µM (Hs-578T) [%] | inhibition of growth at 10 µM (SK-MEL-5) [%] | other results
O=[N+]([O-])c1cccc(C2NC(=S)Nc3c2sc2ccc(Cl)cc32)c1 (configuration not stated) | 4.42 | -1.46 | 4.17 | -6.1 | 2.86 | -8.3 | 22 | 19.7 | 17.3 | 15.4 | 14.5 | 6.48 | 10.6 | 23.7 | -0.61 | 8.94 | -13.8 | -3.44 | 11.4 | 4.44 | inhibition of growth at 10 µM (HOP-92): 6.43%; inhibition of growth at 10 µM (HT-29): 4%; inhibition of growth at 10 µM (MCF7): -8.3%; inhibition of growth at 10 µM (OVCAR-5): 0.45%; inhibition of growth at 10 µM (MDA-MB-468): 5.75%; inhibition of growth at 10 µM (U-251): 4.4%; inhibition of growth at 10 µM (SK-OV-3): 10.5%; inhibition of growth at 10 µM (OVCAR-3): 7.97%; inhibition of growth at 10 µM (A549): 2.45%; inhibition of growth at 10 µM (UACC-257): -0.4%; inhibition of growth at 10 µM (BT-549): -0.23%; inhibition of growth at 10 µM (NCI-H226): 20.5%; inhibition of growth at 10 µM (SN12C): 7.47%; inhibition of growth at 10 µM (SNB-75): 24.4%; inhibition of growth at 10 µM (RXF 393): -9.88%; inhibition of growth at 10 µM (SR): 20.3%; inhibition of growth at 10 µM (ACHN): 13%; inhibition of growth at 10 µM (EKVX): 26.5%; inhibition of growth at 10 µM (IGROV-1): 27.5%
S=C1Nc2c(sc3ccc(Cl)cc23)C(c2cccc(Br)c2)N1 (configuration not stated) | 3.39 | -3.15 | 1.41 | -18.3 | 6.42 | -11.9 | 19.2 | 31.7 | -1 | 6.34 | 12.2 | 5.66 | 1.5 | 9.68 | -1.6 | 13 | -27.2 | -2.63 | 4.32 | 3.95 | inhibition of growth at 10 µM (HOP-92): -3.61%; inhibition of growth at 10 µM (HT-29): 0.35%; inhibition of growth at 10 µM (MCF7): -11.9%; inhibition of growth at 10 µM (OVCAR-5): -0.03%; inhibition of growth at 10 µM (MDA-MB-468): -5.67%; inhibition of growth at 10 µM (U-251): -7.09%; inhibition of growth at 10 µM (SK-OV-3): 10.4%; inhibition of growth at 10 µM (OVCAR-3): -0.26%; inhibition of growth at 10 µM (A549): -7.88%; inhibition of growth at 10 µM (UACC-257): -8.63%; inhibition of growth at 10 µM (BT-549): -10.2%; inhibition of growth at 10 µM (NCI-H226): 15.2%; inhibition of growth at 10 µM (SN12C): 2.82%; inhibition of growth at 10 µM (SNB-75): 18.5%; inhibition of growth at 10 µM (RXF 393): -7.19%; inhibition of growth at 10 µM (SR): 16.3%; inhibition of growth at 10 µM (ACHN): 4.77%; inhibition of growth at 10 µM (EKVX): 12.4%; inhibition of growth at 10 µM (IGROV-1): 22.6%
S=C1Nc2c(sc3ccc(Cl)cc23)C(c2ccc3ccccc3c2)N1 (configuration not stated) | 8.23 | 4.45 | 10.3 | -25.5 | 7.85 | -6.73 | 27.5 | 14.9 | 18.4 | 14.5 | 15.2 | 13.9 | 4 | 23 | 3.99 | 13.9 | -16.7 | 0.1 | 8.86 | 5.24 | inhibition of growth at 10 µM (HOP-92): 27.5%; inhibition of growth at 10 µM (HT-29): 0.32%; inhibition of growth at 10 µM (MCF7): -6.73%; inhibition of growth at 10 µM (OVCAR-5): 5.36%; inhibition of growth at 10 µM (MDA-MB-468): 4.47%; inhibition of growth at 10 µM (U-251): 7.46%; inhibition of growth at 10 µM (SK-OV-3): 12.2%; inhibition of growth at 10 µM (OVCAR-3): 3.25%; inhibition of growth at 10 µM (A549): 7.47%; inhibition of growth at 10 µM (UACC-257): 1.95%; inhibition of growth at 10 µM (BT-549): -9.88%; inhibition of growth at 10 µM (NCI-H226): 20.6%; inhibition of growth at 10 µM (SN12C): 9.45%; inhibition of growth at 10 µM (SNB-75): 26%; inhibition of growth at 10 µM (RXF 393): -0.71%; inhibition of growth at 10 µM (SR): 19.4%; inhibition of growth at 10 µM (ACHN): 12.4%; inhibition of growth at 10 µM (EKVX): 14.6%; inhibition of growth at 10 µM (IGROV-1): 16.8%
